Experimental data taken from patent publication US7601674B2, “α-oxygenated or α-thiolated carboxylic acid phenethylamide derivatives” (priority 2001, dated 2009).

What was measured:
Type in all cases: in vivo
[1] = tested on: Plasmopara viticola; test: D-1a Action against Plasmopara viticola on vines, residual-protective action; details: vine seedlings, test D-1a residual-protective, untreated plants attack 80-100%, read-out: inhibition of fungal infestation
Procedure: (§1) D-1: Action Against Plasmopara viticola on Vines
(§2) a) Residual-protective Action
Vine seedlings are sprayed at the 4- to 5-leaf stage with a spray mixture (0.02% active ingredient) prepared from a wettable powder formulation of the test compound. After 24 hours, the treated plants are infected with a sporangia suspension of the fungus. Fungus infestation is evaluated after incubation for 6 days at 95-100% relative humidity and +20° C.

[2] = tested on: Phytophthora; test: D-2b Action against Phytophthora on tomato plants, systemic action; details: test D-2b systemic (soil drench), untreated plants attack 80-100%, read-out: inhibition of fungal infestation
Procedure: (§3) D-2: Action Against Phytophthora on Tomato Plants
After a cultivation period of 3 weeks, tomato plants are watered with a spray mixture (0.02% active ingredient based on the volume of the soil) prepared from a wettable powder formulation of the test compound. […] After 96 hours, the treated plants are infected with a sporangia suspension of the fungus. Fungus infestation is evaluated after incubation of the infected plants for 4 days at 90-100% relative humidity and +20° C.

[3] = tested on: Plasmopara viticola; test: D-1b Action against Plasmopara viticola on vines, residual-curative action; details: vine seedlings, test D-1b residual-curative, untreated plants attack 80-100%, read-out: inhibition of fungal infestation
Procedure: as §1
b) Residual-curative Action
Vine seedlings are infected at the 4- to 5-leaf stage with a sporangia suspension of the fungus. After incubation for 24 hours in a humidity chamber at 95-100% relative humidity and […], the infected plants are dried and sprayed with a spray mixture (0.02% active ingredient) prepared from a wettable powder formulation of the test compound. After the spray coating has dried, the treated plants are placed in the humidity chamber again. Fungus infestation is evaluated 6 days after infection.

[4] = tested on: Phytophthora; test: D-2a Action against Phytophthora on tomato plants, residual-protective action; details: test D-2a residual-protective, untreated plants attack 80-100%, read-out: inhibition of fungal infestation
Procedure: as §3, §2
After a cultivation period of 3 weeks, tomato plants are sprayed with a spray mixture (0.02% active ingredient) prepared from a wettable powder formulation of the test compound. After 48 hours, the treated plants are infected with a sporangia suspension of the fungus. Fungus infestation is evaluated after incubation of the infected plants for 5 days at 90-100% relative humidity and +20° C.

[5] = tested on: Phytophthora; test: D-3b Action against Phytophthora on potato plants, systemic action; details: potato plants (Bintje), test D-3b systemic (soil drench), untreated plants attack 80-100%, read-out: inhibition of fungal infestation
Procedure: (§4) D-3: Action Against Phytophthora on Potato Plants
2-3 week old potato plants (Bintje variety) are watered with a spray mixture (0.02% active ingredient based on the volume of the soil) prepared from a wettable powder formulation of the test compound. […] After 48 hours, the treated plants are infected with a sporangia suspension of the fungus. Fungus infestation is evaluated after incubation of the infected plants for 4 days at 90-100% relative humidity and +20° C. Fungal infestation is effectively controlled with compounds of Tables 1 to 64.

[6] = tested on: Phytophthora; test: D-3a Action against Phytophthora on potato plants, residual-protective action; details: potato plants (Bintje), test D-3a residual-protective, untreated plants attack 80-100%, read-out: inhibition of fungal infestation
Procedure: as §4, §2
2-3 week old potato plants (Bintje variety) are sprayed with a spray mixture (0.02% active ingredient) prepared from a wettable powder formulation of the test compound. After 48 hours, the treated plants are infected with a sporangia suspension of the fungus. Fungus infestation is evaluated after incubation of the infected plants for 4 days at 90-100% relative humidity and +20° C.

Measured: inhibition at 200 ppm

C#CCOc1ccc(CCNC(=O)C(O)COc2ccc(Cl)cc2)cc1OC (stereo not shown) [Compound E1.24, 3-(4-Chloro-phenoxy)-2-hydroxy-N-[2-(3-methoxy-4-prop-2-ynyloxy-phenyl)-ethyl]-propionamide]
80 to 100%: [1] | [2] | [3] | [4]

C#CCOc1ccc(CCNC(=O)C(COc2ccc(Cl)cc2)OCC#C)cc1OC (stereo not shown) [Compound E1.26]
80 to 100%: all assays above
